Source: paper PMC10393279, “Can BioSAXS detect ultrastructural changes of antifungal compounds in Candida albicans?–an exploratory study” (Frontiers in Pharmacology, 2023)
Where two headings read alike, the source gives them in different places. No end group written: not given here.

Tests used:
C. albicans [1] = test: BioSAXS ultrastructural changes, principal component analysis of scattering curves; assay type: cell-based, Candida albicans; settings: 2xMIC, 40 min
Description: A detailed description of the sample preparation for BioSAXS, the BioSAXS measurement and consequently the data evaluation methods can be found in the open-source publication by [Von Gundlach et al. (2019)]. Briefly, an aliquot of an overnight culture of a clinical isolate of C. albicans was diluted in Mueller-Hinton broth (MHb) and incubated for 2.5 h at 30°C on a shaker (225 rpm) to achieve log phase growth. The C. albicans culture was adjusted to have 1.2 × 10^6 CFU/mL and aliquoted. The aliquots were then mixed with either sterile water or antifungal solution (2xMIC) to provide 6 × 10^5 CFU/mL aliquots. Those were further incubated for 40 min at 30°C at 225 rpm. All aliquots were then centrifuged at 10,000 rpm and washed 3 times in ml 0.1 M PIPES [piperazine-N,N′-bis(2-ethanesulfonic acid)] buffer, pH 7.0. After washing, the pellet was resuspended in 1 mL of 2.5% glutaraldehyde v/v in PIPES buffer and fixated for 1 h at room temperature at 225 rpm. Consequently, the samples were washed 3 times with PBS buffer and resuspended in 100 µL of PBS and stored at 5°C.
The SAXS measurements were performed on the P12 BioSAXS beamline, EMBL (DESY, Hamburg), using a double crystal Si (111) monochromator. An energy of 10 keV with a 10^13 s^−1 photon flux was used. 30 μL of each sample was injected into the measuring chamber by an automatic sample robot (Arinax, BioSAXS), the focus of the X-ray beam was 0.2 × 0.12 mm. The scattering signal was recorded with a Pilatus 2 M detector (Dectris, Switzerland). For each sample, 20 measurements were made with 0.05 s exposure. Before and after each measurement the background was measured and automatically subtracted from the SAXS curves. Data analysis and evaluation were done using the open-source software SciXMiner (“Peptide Extension”) ([Mikut, 2010]; [Mikut et al., 2017]). To determine differences in the scattering curves between treated and untreated samples as well as between the different treatments a principal component analysis (PCA) was applied to the scattering curves. The data are measurements of about 100,000 cells that were measured 20 times to obtain the scattering curves. SAXS curves were averaged and the standard deviation was used as an error bar. The PCA analysis was carried out in the frequency range between 0.05–0.4 nm^−1, and errors were propagated from the single SAXS curves (see Supplementary Figure S1).

C. albicans [2] = test: microbe, parasite or virus in culture; assay type: cell-based, Candida albicans; settings: broth microdilution, 30°C
Description: In this project, we used a clinical isolate of C. albicans obtained from Tim Planche (St. George’s, University of London).
Mueller-Hinton broth (MHb) (Merck, Life Science UK Limited, Dorset, UK) was prepared to concur with the manufacturer’s directions and supplemented with 2% glucose to grow C. albicans. Liquid cultures were incubated at 30°C for 18–20 h on a shaker, and culture on solid media was incubated for 18–24 h at 30°C.
When it comes to determining the antimicrobial activity of antimicrobial peptides (AMPs) there are unfortunately many different approaches reported. Many AMPs are negatively affected by positively charged ions and other components of growth media, therefore Mueller-Hinton broth (MHb) is frequently used since it supports the growth of many organisms and seems to interfere little with the activity of most AMPs. The […] of Flucytosine and antifungal peptides were determined using a protocol (option E) of the highly cited publication by [Wiegand et al. (2008)] optimized for the work with antimicrobial peptides. This protocol uses MHb (0.2% beef extract, 1.75% casein hydrolysate). To adopt that media for the growth of yeast 2% glucose was added. For comparison, YPD complex medium (1% yeast extract, 2% peptone, 2% dextrose) is often used for the growth of yeast. Where this media provides the best activity for antimicrobial peptides the results should be carefully used when comparing MIC values to other antifungals measured in different growth media. A broth microdilution assay was applied using 6 × 10^5 CFU/mL at 30°C. MICs were determined by the unaided eye, as the concentration in which no growth was observed.

erythrocytes = test system: erythrocytes; design: method as in 3 sources, one per row (each row's own in cited_ref): ref Cerovsky et al., 2009 ||| ref Cao et al., 2012; Almaaytah and Albalas, 2014 ||| ref Hirai et al., 1981; settings: cited from earlier work
sheep erythrocytes = settings: ref Andreu et al., 1992, Edlund et al., 1998; cited from earlier work
human erythrocytes = settings: no method in this paper, ref Grimsey et al., 2020; cited from earlier work
[3] = 6 × 10^5 CFU/mL, PCA range 0.05–0.4 nm^−1
[4] = Mueller-Hinton broth + 2% glucose, 6 × 10^5 CFU/ml C. albicans clinical isolate, read by unaided eye, n = 3, modal values

Compound: Nc1[nH]c(=O)ncc1F [Flucytosine]
- PC1 value, rank in the set of six antifungal compounds (C. albicans [1]): second-lowest
- PC2 value compared to the untreated cells (direction) (C. albicans [1]): increased
- PC2 value, rank in the set of six antifungal compounds (C. albicans [1]): highest
- ΔPC1 (treated versus untreated), sign (C. albicans [1]): positive
- increase of PC2 versus untreated sample (C. albicans [1]; [3]): about 1 unit
- reduction of PC1 versus untreated sample (C. albicans [1]; [3]): about 6 units
- MIC (C. albicans [2]; Candida albicans, MHb + 2% glucose, 6 × 10^5 CFU/mL C. albicans clinical isolate, read-out: MIC): 8 mg/L

Compound: INLKAIAALAKKLL-NH2 [Mastoparan M]
- hemolytic activity (erythrocytes; ref Hirai et al., 1981): very little
- MIC (C. albicans [2]; [4]): 22 µM

Compound: KWKLFKKIGAVLKVL-NH2
- hemolytic activity (sheep erythrocytes): > 500 µg/mL
- MIC (C. albicans [2]; [4]): 18 µM

Compound: KRRVRWIIW-NH2 [OptP7]
- HC50 (hemolysis) (human erythrocytes): > 250 µg/mL
- MIC (C. albicans [2]; [4]): 24 µM

Compound: FIGAIARLLSKIFGKR-NH2 [Bmkn2]
- HC50 (hemolysis) (erythrocytes; ref Cao et al., 2012, Almaaytah and Albalas, 2014): 17.13 µg/mL
- MIC (C. albicans [2]; [4]): 18 µM

Compound: VNWKKILGKIIKVVK-NH2 [Lasioglossin LL-III]
- hemolytic and cytotoxic activity (erythrocytes; ref Cerovsky et al., 2009): low
- MIC (C. albicans [2]; [4]): 36 µM
